Experimental findings from patent US9302999B2, “Substituted triazoles as herbicides” (E. I. DU PONT DE NEMOURS AND COMPANY, priority 2012, dated 2016) are described below.

Holding throughout (assay type): in vivo
The subject of assay [1] is poinsettia, wild (wild poinsettia, Euphorbia heterophylla). The assay can be described thus: Test F pre-/postemergence: poinsettia, wild. As to conditions: Preemergence. In outline:
(§1)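 Visual response scores, 0 meaning no effect and 100 complete control, were assigned against untreated controls 14 to 21 days after treatment. Test chemicals in a surfactant-containing non-phytotoxic solvent were applied preemergence to seeded silt loam soil or postemergence to 2–18 cm plants in peat-based medium.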

Assay [2] deals with waterhemp (common waterhemp, Amaranthus rudis). The assay is described as follows: Test F pre-/postemergence: waterhemp. As to conditions: Preemergence. The essentials: as §1
The subject of assay [3] is foxtail, green (green foxtail Setaria viridis). The assay can be described thus: Test F pre-/postemergence: foxtail, green. As to conditions: Preemergence. In outline: as §1
Assay [4] has as its system nutsedge, yellow (yellow nutsedge, Cyperus esculentus). The assay can be described thus: Test F pre-/postemergence: nutsedge, yellow. As to conditions: Preemergence. The source says:
Seeds of plant species selected from corn (Zea mays), soybean (Glycine max), velvetleaf (Abutilon theophrasti), lambsquarters (Chenopodium album), poinsettia, wild (wild poinsettia, Euphorbia heterophylla), pigweed, palmer (palmer pigweed, Amaranthus palmeri), waterhemp (common waterhemp, Amaranthus rudis), surinam grass (Brachiaria decumbens), crabgrass, Brazil (Brazilian crabgrass, Digitaria horizontalis), panicum, fall (fall panicum Panicum dichotomiflorum), crabgrass, large (large crabgrass, Digitaria sanguinalis), foxtail, giant (giant foxtail, Setaria faberii), foxtail, green (green foxtail Setaria viridis), goosegrass (Eleusine indica), ragweed (common ragweed, Ambrosia elatior), barnyardgrass (Echinochloa crus-galli), sandbur (southern sandbur, Cenchrus echinatus), arrowleaf sida (Sida rhombifolia), ryegrass, Italian (Italian ryegrass, Lolium multiflorum), dayflower, VA (Virginia (VA) dayflower, Commelina virginica), field bindweed (Convolvulus arvensis), cocklebur (common cocklebur, Xanthium strumarium), morningglory (Ipomoea coccinea), nightshade (eastern black nightshade, Solanum ptycanthum), kochia (Kochia scoparia), nutsedge, yellow (yellow nutsedge, Cyperus esculentus), johnsongrass (Sorghum halepense), smartweed (ladysthumb smartweed, Polygonum persicaria), and beggarticks (hairy beggarticks, Bidens pilosa), were planted into a silt loam soil and treated preemergence with test chemicals formulated in a non-phytotoxic solvent mixture which included a surfactant. At the same time, plants selected from these crop and weed species and also pigweed (Amaranthus retroflexus), waterhemp_RES1 (ALS/Triazine resistant common waterhemp, Amaranthus rudis) and waterhemp_RES2 (ALS/HPPD resistant common waterhemp, Amaranthus rudis) were planted in pots containing a planting medium comprising spaghnum peat moss, vermiculite, wetting agent and starter nutrients treated with postemergence applications of some of the test chemicals formulated in the same manner. Plants ranged in height from 2 to 18 cm for postemergence treatments (1- to 4-leaf stage).
Treated plants and controls were maintained in a greenhouse for 14 to 21 days, after which time all species were compared to controls and visually evaluated. Plant response ratings, summarized in Table E, are based on a scale of 0 to 100 where 0 is no effect and 100 is complete control. A dash (-) response means no test result.

Another assay has as its system Oilseed Rape. The assay is described as follows: Test C pre-/postemergence: oilseed rape. The settings on record: Preemergence, 250 g ai/ha; scale 0 to 100, 0 no effect, 100 complete control.
The mark [5] stands for this setting: 16 g ai/ha, scale 0 to 100 (0 no effect, 100 complete control).
Setting [6] is: 31 g ai/ha, scale 0 to 100 (0 no effect, 100 complete control).

On to `CCCc1nn(-c2ccc(F)cc2)nc1Cc1ccnc(C(F)(F)F)c1` [Compound 153], for which the “Plant response rating, Poinsettia, Wild” value in assay [1] (setting [5]) came to 0; in assay [1] (setting [6]), 25; in assay [1] (125 g ai/ha, scale 0 to 100), 70; in assay [1] (250 g ai/ha, scale 0 to 100) it was 98. In addition, the “Plant response rating, Waterhemp” value was 65 in assay [2] (setting [5]); 100 in assay [2] (setting [6]); 100 in assay [2] (125 g ai/ha, scale 0 to 100); 100 in assay [2] (250 g ai/ha, scale 0 to 100). The “Plant response rating, Foxtail, Green” value in assay [3] (setting [5]) is given as 50; in assay [3] (setting [6]), 75; in assay [3] (62 g ai/ha, scale 0 to 100) it was 100; in assay [3] (125 g ai/ha, scale 0 to 100), 100; in assay [3] (250 g ai/ha, scale 0 to 100), 100. The “Plant response rating, Nutsedge, Yellow” value in assay [4] (setting [5]) is 0; in assay [4] (setting [6]), 0; in assay [4] (125 g ai/ha, scale 0 to 100), 10; in assay [4] (250 g ai/ha, scale 0 to 100) it was 10. The “Plant response rating, Oilseed Rape” value in the assay with Oilseed Rape stood at 98.
